Values of other authors as cited in patent US20190231795A1, “METHODS FOR TREATING CANCER AND PREDICTING DRUG RESPONSIVENESS IN CANCER PATIENTS” (LiPlasome Pharma ApS, priority 2018, published 2019).

Tests used:
[1] = system: DNA platinum adducts (GG-Pt) in tumor tissue; details: comparison value

N.N.[Cl][Pt][Cl] [conventional cisplatin, cisplatin]
increase of DNA-platinum (GG-Pt) in tumor tissue seen with conventional cisplatin [1]: 4-6 fold | response rate (metastatic breast cancer): 10%
